The results in this text go back to ChEMBL document CHEMBL4477268, “2-(4-Fluorophenyl)-quinazolin-4(3H)-one as a novel tyrosinase inhibitor: Synthesis, inhibitory activity, and mechanism” (Bioorg Med Chem, 2016).

Activity calls are given as the source filed them. The calls are words filed in the database; no cut-off is given here.

For assay [1], the target named is T1, Tyrosinase (Agaricus bisporus) (UniProt O42713).
T1 sequence (whole entry): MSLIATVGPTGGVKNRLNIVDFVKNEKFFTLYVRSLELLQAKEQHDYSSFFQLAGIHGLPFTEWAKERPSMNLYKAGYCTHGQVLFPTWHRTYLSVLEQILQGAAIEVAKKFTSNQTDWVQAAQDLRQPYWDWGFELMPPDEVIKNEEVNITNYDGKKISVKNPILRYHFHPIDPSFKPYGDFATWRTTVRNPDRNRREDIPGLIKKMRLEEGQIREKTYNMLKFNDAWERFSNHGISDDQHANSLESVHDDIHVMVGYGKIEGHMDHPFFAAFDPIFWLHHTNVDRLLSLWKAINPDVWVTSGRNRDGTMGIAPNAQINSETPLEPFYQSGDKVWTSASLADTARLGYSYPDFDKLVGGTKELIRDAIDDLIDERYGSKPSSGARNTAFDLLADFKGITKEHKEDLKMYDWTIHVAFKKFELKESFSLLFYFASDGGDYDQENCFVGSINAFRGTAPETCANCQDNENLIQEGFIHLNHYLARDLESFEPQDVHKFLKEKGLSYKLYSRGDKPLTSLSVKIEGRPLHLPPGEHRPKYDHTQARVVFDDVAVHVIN
Briefly: Binding affinity to mushroom tyrosinase assessed as reduction in fluorescence intensity by spectrophotometric analysis.

The target of assay [2] is T1, Tyrosinase (Agaricus bisporus). Briefly: Binding affinity to mushroom tyrosinase assessed as induction of red shift in spectra by fluorescence-spectrophotometric analysis.
A short description of assay [3]: Binding affinity to L-DOPA assessed as decrease in maximum fluorescence emission intensity of L-DOPA at 48 uM by spectrophotometric analysis. Further details: scale not given: the % may be the effect or the level left.
Assay [4] concerns the target T1, Tyrosinase (Agaricus bisporus). Briefly: Binding affinity to mushroom tyrosinase assessed as reduction in fluorescence intensity at 0 to 10 uM by fluorescence-spectrophotometric analysis. Further details: scale not given: the % may be the effect or the level left.
Assay [5] deals with T2, Tyrosinase (Agaricus bisporus, UniProt O42713).
T2 sequence (O42713 whole entry): T1 sequence (whole entry)
Description: (§1) Inhibition of diphenolase activity of mushroom tyrosinase using L-DOPA as substrate by spectrophotometric analysis.

Assay [6] deals with T1, Tyrosinase (Agaricus bisporus). The description is as §1.
Assay [7] deals with T2, Tyrosinase. Briefly: Mixed-type reversible inhibition of diphenolase activity of mushroom tyrosinase assessed as enzyme-substrate complex using L-DOPA as substrate by Lineweaver-Burk double reciprocal plot analysis.
Assay [8] in a line: Binding affinity to tyrosine assessed as decrease in maximum fluorescence emission intensity of tyrosine at 48 uM by spectrophotometric analysis. Further details: scale not given: the % may be the effect or the level left.
The target in assay [9] is T2, Tyrosinase. Description: Mixed-type reversible inhibition of diphenolase activity of mushroom tyrosinase using L-DOPA as substrate by Lineweaver-Burk double reciprocal-plot analysis.

The IC50 is the concentration at which inhibition is half-maximal. In general, Ki refers to a dissociation constant, usually derived from enzyme kinetics or from competition with a known ligand. With `Oc1nc(-c2ccc(F)cc2)nc2ccccc12`, the Activity result is “Dose-dependent effect” in [1], 44.8% in [3], 77.2% in assay [4] and 53.1% in assay [8]. In [2], the outcome was Active. Also, half-maximal inhibition against Tyrosinase [5] (IC50) required 120 µM. For the same compound, the inhibition result in assay [6] is “Dose-dependent effect”. In addition, the inhibitory constant (Ki) at Tyrosinase [7] came out at 222 µM; on Tyrosinase [9], 703 µM.
